Where two headings read alike, the source gives them in different places. Blank lines part the entries; values can stand above or below the compound they belong to.
What was measured:
[1] = Persistence of microbubbles in water at 37° C. observed by ultrasound scan; assay type: physicochemical
Experimental: The relationship between a calculated Q-value for a given gas and the persistence of microbubbles of that gas was studied to determine what Q-value would be a lower limit for utility as an ultrasound contrast agent. […] Five mL of a 20% sorbitol solution was taken up in a 10 mL syringe connected to a three way stopcock. A 10 mL syringe, containing 2 cubic centimeters of the subject gas (or low boiling liquid, as pertinent) was attached to the syringe containing the sorbitol solution. The sorbitol and gas or liquid are rapidly mixed 25-times to create a suspension of microbubbles or dispersed liquid and then rapidly added to the water. […] Ultrasound scans before, during and after the addition were made with a Hewlett-Packard Model Sonos 500 ultrasound scanner operating at 5 MHz. The time during which the microbubbles could be observed was recorded. […] The experimental Q-values were obtained by dividing the measured persistence of a given gas by the measured persistence for air.

[2] = cited from earlier work; for SOLUBILITY: in water, fluorocarbons estimated by extrapolation relative to perfluoro-n-pentane; for DENSITY: gas density; for boiling point: standard pressure conditions
[3] = Physical properties of gases: density, solubility in water, diffusivity, molar volume, boiling point; assay type: physicochemical; settings: (*) estimated from the known density of homologous fluorocarbons
Text: Different methods for determining or estimating values for the individual parameters of density, diffusivity, and solubility may be needed depending on the chemical structure of the gas. Values for these parameters may or may not be available from known scientific literature sources such as the Gas Encyclopedia or the tabulations published by the American Chemical Society. Values for the density of most gases are readily available from sources such as the Handbook of Chemistry and Physics. […] Additionally, the solubility in water and molar volume of some gases has been measured with accuracy. In many cases however, calculations for the numerical values for molar volume and solubility may need to be calculated or estimated to provide the data used to determine the value of the Q coefficient for an individual gas by the method described above.
To determine the Q value for several gases, the solubility, molar volume and density of the individual gases are determined and the values are substituted into Equations (7) or (8) above.
This method for estimating the gas solubility of fluorocarbons uses extrapolation of the experimental data of Kabalnov AS, Makarov KN, and Scherbakova OV. […] For a homologous series of non-branched fluorocarbons, the gas solubility may be estimated by increasing or reducing this value by a factor of about 8.0 for each increase or reduction in the number of additional —CF2— groups present in the molecule.
The molar volume of a gas can be estimated by identifying the number and type of atoms that make up the molecule of gas in question. By determining the number and type of atoms present in the molecule and how the individual atoms are bound to each other, known values may be applied for the molecular volume of the individual atoms. By considering the contribution of each individual atom and its frequency of occurrence, one may calculate the total molar volume for a particular gas molecule.

[4] = about 100 micron microbubbles, 20% sorbitol, added to water at 37° C., 5 MHz ultrasound

Compound: CCCCC [Pentane]
PERSISTENCE of microbubbles [1, 4]: 20.6 min | SOLUBILITY [2]: 1674 µmol/L

Compound: [Kr] [Krypton]
DENSITY [2]: 3.8 kg/m3

Compound: CCOCC [Ethyl ether]
PERSISTENCE of microbubbles [1, 4]: 0.1 min | DENSITY [2]: 2.55 kg/m3 | SOLUBILITY [2]: 977,058 micromoles/liter

Compound: FC(F)=C(F)C(F)=C(F)F [Hexafluorobuta-1,3-diene]
DENSITY [3]: 9 (*) kg/m3

Compound: Hexafluoropropane
DENSITY [2]: 10.3 kg/m3

Compound: O=C=O [Carbon Dioxide]
DENSITY [2]: 1.98 kg/m3 | SOLUBILITY [2]: 33000 µmol/L

Compound: CCCC [n-Butane]
PERSISTENCE of microbubbles [1]: 1.5 min (2.6) | DENSITY [2]: 2.05 kg/m3 | SOLUBILITY [2]: 6696 µmol/L

Compound: FC(=C(F)C(F)(F)F)C(F)(F)F [Octafluoro-2-butene]
DENSITY [3]: 10 (*) kg/m3

Compound: FC(F)(F)C#CC(F)(F)F [Hexafluoro-2-butyne]
DENSITY [3]: 9 (*) kg/m3

Compound: FC(F)(F)C(F)(F)C(F)(F)C(F)(F)C(F)(F)C(F)(F)F [Perfluorohexane, reference compound]
boiling point [2]: 59-60 degrees Centigrade

Compound: [Xe] [Xenon]
DENSITY [2]: 5.90 kg/m3

Compound: [Ne] [Neon]
DENSITY [2]: 0.90 kg/m3 | SOLUBILITY [2]: 434 µmol/L

Compound: CC [Ethane]
DENSITY [2]: 1.05 kg/m3

Compound: [He] [Helium]
PERSISTENCE of microbubbles [1, 4]: 2.0 min | DENSITY [2]: 0.18 kg/m3 | SOLUBILITY [2]: 388 µmol/L

Compound: FC(F)(F)C(F)(F)C(F)(F)C(F)(F)F [Decafluorobutane]
DENSITY [2]: 11.21 kg/m3 | SOLUBILITY [2]: 32 µmol/L

Compound: FS(F)(F)(F)(F)F [Sulfur Hexafluoride]
DENSITY [2]: 5.48 kg/m3

Compound: FC1(F)C(F)(F)C(F)(F)C1(F)F [Octafluorocyclobutane]
DENSITY [2]: 9.97 kg/m3 | SOLUBILITY [2]: 220 µmol/L

Compound: [Ar] [Argon]
DENSITY [2]: 1.78 kg/m3

PERSISTENCE of microbubbles [1, 4]: 3.2 min
Compound: CCC [Propane]
DENSITY [2]: 2.02 kg/m3

PERSISTENCE of microbubbles [1, 4]: > 5760 min
Compound: FC(F)(F)C(F)(F)C(F)(F)C(F)(F)C(F)(F)F [Dodecafluoropentane]
water solubility [2]: 4.0×10^−6 moles per liter | DENSITY [2]: 12.86 kg/m3 | boiling point [2]: 29.5 degrees Centigrade

Compound: FC(F)(F)C(F)(F)F [Hexafluoroethane]
DENSITY [2]: 8.86 kg/m3

Compound: FC(F)(F)C(F)(F)C(F)(F)F [Octafluoropropane]
DENSITY [2]: 10.3 kg/m3 | SOLUBILITY [2]: 260 µmol/L

Reference: US6875420B1, “Method of ultrasound imaging” (Amersham Health AS, priority 1991, dated 2005)
